The values that follow come from patent publication US20050271676A1, “Inducing cellular immune responses to human immunodeficiency virus-1 using peptide and nucleic acid compositions” (Epimmune Inc., priority 1993, published 2005).

One experiment addresses HLA-A*6802 (Homo sapiens, UniProt P04439, A269V/D140Y/D185E/E176V/E277Q/E87N/F33Y/G231S/I121R/I166T/I218V/L180W/L300P/L318F/N151K/P208A/P217A/Q86R/R138H/R169H/S129P/T345S/V36M). Put plainly: purified HLA class I binding assay, A*6802.
The next experiment deals with HLA-A*0202 (Homo sapiens, UniProt P04439, D140Y/D185E/D98H/E176V/E277Q/G131W/G231S/I119L/I121R/I166T/I218V/L180W/L300P/L318F/N151K/N90K/P208A/P217A/Q67R/Q86G/Q94H/R138H/R169H/T345S). Put plainly: purified HLA class I binding assay, A*0202.
Another experiment concerns the target HLA-A*0206 (Homo sapiens, UniProt P04439, D140Y/D185E/D98H/E176V/E277Q/F33Y/G131W/G231S/I119V/I121R/I166T/I218V/L300P/L318F/N151K/N90K/P208A/P217A/Q86G/Q94H/R138H/R169H/T345S). Put plainly: purified HLA class I binding assay, A*0206.
A further experiment has as its target HLA-A*0203 (Homo sapiens, UniProt P04439, A173T/D140Y/D185E/D98H/E277Q/G131W/G231S/I119V/I121R/I166T/I218V/L180W/L300P/L318F/N151K/N90K/P208A/P217A/Q86G/Q94H/R138H/R169H/T345S). The experiment is described as follows: purified HLA class I binding assay, A*0203.
The target in a further experiment is HLA-A*3101 (Homo sapiens, UniProt P04439, A270S/D185E/E176V/E277Q/F33T/G231S/G80R/H175R/I121M/I218V/I322F/K168Q/L300P/L318F/M331R/P217A/Q94H/R138Q/T323A/T345S/T97I/V358M). The experiment is described as follows: purified HLA class I binding assay, A*3101. Conditions: binding value.
Another experiment deals with T1, HLA-A*0301 (Homo sapiens, UniProt P04439).
T1 construct: endogenous in cells; host or cells: GM3107
Put plainly: purified HLA class I binding assay, A*0301. The following applies: for A*0301 binding information: binding value.

The target in the next experiment is HLA-A*1101 (Homo sapiens, UniProt P04439, A114D/D185E/E176A/F33Y/L180Q/S129P/T187R). Put plainly: purified HLA class I binding assay, A*1101.
The next experiment has as its target HLA-A*6801 (Homo sapiens, UniProt P04439, A269V/D185E/E176V/E277Q/E87N/F33Y/G231S/I121M/I166T/I218V/L180W/L300P/L318F/N151K/P208A/P217A/Q86R/R169H/T345S). Put plainly: purified HLA class I binding assay, A*6801. The following applies: binding value.
Another experiment concerns the target HLA-A*0201 (Homo sapiens, UniProt P04439, D140Y/D185E/D98H/E176V/E277Q/G131W/G231S/I119V/I121R/I166T/I218V/L300P/L318F/N151K/N90K/P208A/P217A/Q86G/Q94H/R138H/R169H/T345S). The experiment is described as follows: purified HLA class I binding assay, A*0201.
The target in another experiment is HLA-A*2402 (Homo sapiens, UniProt P04439, D101N/D140Y/D185E/E176V/E190D/F33S/G103R/G107R/I119L/I121M/I306V/K335N/L105A/L180Q/L300P/N151K/N90K/Q86E/Q94H/R106L/R138H/R89G/T104I/T345S/V100E/W191G/Y123F). The experiment is described as follows: purified HLA class I binding assay, A*2402. Conditions: unit not given.
The mark [1] stands for this setting: Table IX, HIV A03 super motif peptides, unit not given.
Where [2] appears, read: Table IX, HIV A03 super motif peptides, binding value, unit not given.
The mark [3] stands for this setting: Table XVII, HIV A11 motif peptides, binding value A*1101, unit not given.
[4] abbreviates: HIV A24 supermotif peptides, Table X, A*2401.
Where [5] appears, read: HIV A03 supermotif peptides, no unit given.

pIC50: −log10 of the molar value. No end group written: not given here.

For the compound `CC(C)C[C@H](NC(=O)[C@H](CCCCN)NC(=O)[C@H](Cc1ccccc1)NC(=O)[C@H](CS)NC(=O)[C@H](Cc1c[nH]c2ccccc12)NC(=O)CNC(=O)[C@H](Cc1ccccc1)NC(=O)[C@@H](NC(=O)[C@H](CC(C)C)NC(=O)[C@@H]1CCCN1)[C@@H](C)O)C(=O)O` [25.0142], the pIC50 on HLA-A*6802 was 7.32; at HLA-A*0202, 6.13; at HLA-A*0206 it was 5.43.
Regarding `CC[C@H](C)[C@H](NC(=O)[C@H](CC(=O)O)NC(=O)[C@@H](NC(=O)[C@H](C)NC(=O)[C@H](CC(N)=O)NC(=O)[C@H](CC(C)C)NC(=O)[C@H](CC(C)C)NC(=O)[C@@H](N)CO)[C@@H](C)O)C(=O)N[C@@H](C)C(=O)N[C@H](C(=O)O)C(C)C` [Peptide 1211.09], the values for the pIC50 on HLA-A*6802, on HLA-A*0202 and at HLA-A*0206 were 5.26, 5.89 and 7.55, respectively.
In the case of `CC[C@H](C)[C@H](NC(=O)[C@@H]1CCCN1C(=O)[C@@H]1CCCN1C(=O)[C@H](CC(N)=O)NC(=O)[C@H](CC(N)=O)NC(=O)[C@@H](NC(=O)[C@@H](N)CCSC)[C@@H](C)O)C(=O)N1CCC[C@H]1C(=O)N[C@H](C(=O)O)C(C)C` [Peptide 1261.03], the negative logarithm of the IC50 (pIC50) on HLA-A*6802 is 7.92; on HLA-A*0202, 5.14.
Take `CC[C@H](C)[C@H](NC(=O)[C@H](C)N)C(=O)N[C@H](C(=O)N[C@@H](CCCNC(=N)N)C(=O)N[C@H](C(=O)N[C@@H](CC(C)C)C(=O)N[C@@H](CCC(N)=O)C(=O)N[C@@H](CCC(N)=O)C(=O)N[C@@H](CC(C)C)C(=O)O)[C@@H](C)CC)[C@@H](C)CC` [Peptide 1261.11]: the values for the pIC50 on HLA-A*6802, at HLA-A*0202 and on HLA-A*0206 were 6.26, 7.65 and 7.41, respectively.
Turning to `CC(C)C[C@H](NC(=O)[C@H](CCCCN)NC(=O)[C@H](Cc1ccccc1)NC(=O)[C@H](CS)NC(=O)[C@H](Cc1c[nH]c2ccccc12)NC(=O)CNC(=O)[C@H](Cc1ccccc1)NC(=O)[C@@H](NC(=O)[C@@H](N)CC(C)C)[C@@H](C)O)C(=O)N[C@H](C(=O)O)C(C)C` [Peptide 1261.14], the negative logarithm of the IC50 (pIC50) at HLA-A*6802 is 8.21; on HLA-A*0202 it was 7.31.
Turning to `CSCC[C@H](N)C(=O)N[C@@H](C)C(=O)N[C@@H](CO)C(=O)N[C@@H](CC(=O)O)C(=O)N[C@@H](Cc1ccccc1)C(=O)N[C@@H](CC(N)=O)C(=O)N[C@@H](CC(C)C)C(=O)N1CCC[C@H]1C(=O)N1CCC[C@H]1C(=O)N[C@H](C(=O)O)C(C)C` [Peptide 1261.15], the pIC50 was 7.74 at HLA-A*6802, 7.25 on HLA-A*0203, 7.65 on HLA-A*0202 and 7.47 on HLA-A*0206.
As to ASCDKCQLK, the “A*3101 binding information” value with HLA-A*3101 (setting [1]) came to 0.0020. Further, in the experiment with HLA-A*0301 (HIV POL-derived A03 motif peptides, binding value for purified HLA-A*0301, unit not given), the “A0301 (HIV A03 Motif Peptides with Binding Information)” value came to 0.0027. The “A*0301 binding information” value with HLA-A*0301 (setting [1]) is reported as 0.0027. Further, the “A*1101 (binding information)” value in the experiment with HLA-A*1101 (setting [2]) is listed as 0.0140; in the experiment with HLA-A*1101 (setting [3]), 0.0040. The “A*6801 binding information” value in the experiment with HLA-A*6801 (setting [1]) is 0.0001.
In the case of DIQIKELQK, the “A*3101 binding information” value with HLA-A*3101 (setting [1]) was determined as 0.0006. Further, the “A*0301 binding information” value with HLA-A*0301 (setting [1]) is 0.0009. Also, the “A*1101 (binding information)” value with HLA-A*1101 (setting [2]) is 0.0006. In addition, the “A*6801 binding information” value in the experiment with HLA-A*6801 (setting [1]) came out at 0.0001.
For FLGAAGSTM [1211.05], the pIC50 on HLA-A*6802 is 4.18; on HLA-A*0203 it was 8.82; on HLA-A*0202, 5.45; on HLA-A*0206, 5.39; on HLA-A*0201, 7.13.
With FTTPDKKIIQK, the “A*3101 binding information” value with HLA-A*3101 (setting [1]) amounted to 0.0010. Further, the “A*0301 binding information” value with HLA-A*0301 (setting [1]) is reported as 0.0002. In addition, the “A*1101 (binding information)” value with HLA-A*1101 (setting [2]) and with HLA-A*1101 (setting [3]) was 0.0150 in each case. Besides, the “A*6801 binding information” value in the experiment with HLA-A*6801 (setting [1]) was 0.0273.
GIPHPAGLK: the “A*3101 binding information” value on HLA-A*3101 (setting [1]) is recorded as 0.0007. The “A*1101 (binding information)” value on HLA-A*1101 (setting [2]) is 0.0650. Further, the “A*6801 binding information” value at HLA-A*6801 (setting [1]) was found to be 0.0110.
Turning to GYELIIPDKW, in the experiment with HLA-A*2402 (setting [4]), the “A*2401 (binding information)” value came to 0.0001.
On the same count and under the same terms, to IWQLDCTIIL belongs 0.0095.
As to IYQEPIKNL, the “A*2401 (binding information)” value with HLA-A*2402 (setting [4]) is reported as 0.0520.
Turning to KLTEERWNK, the “A*3101 binding information” value in the experiment with HLA-A*3101 (setting [5]) was 0.0680. For the same compound, the “A*0301 binding information” value with HLA-A*0301 (setting [5]) turned out to be 0.0130. Besides, the “A*1101 (binding information)” value with HLA-A*1101 (HIV A03 supermotif peptides, binding value, no unit given) came out at 0.2700. The “A*6801 binding information” value with HLA-A*6801 (setting [5]) was 0.0002.
In the case of KMIGGIGGPI, the “A*2401 (binding information)” value with HLA-A*2402 (HIV A24 motif peptides, purified HLA-A24 molecule) is 0.0001.

A word on the pIC50: it is the IC50 on a negative log10 scale, so that one unit is a factor of ten. Low values mean a high IC50, high ones a low IC50.
